Source: PubChem BioAssay AID2060610 (Molecular Pharmacology Branch, DTP, NCI, 2025)

System: 616215-338-R-J1-PDC complex spheroids, viability % test/control
Assay: Anticancer human tumor 616215-338-R-J1-PDC patient-derived colon adenocarcinoma cell line growth inhibition [CLK]
Conditions: for IC50: curve of first compound; for viability, T/C: stronger effect = lower value
Procedure, shortened: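 Multi-cell-type spheroids combined patient-derived tumor cells with HUVEC endothelial cells and human mesenchymal stem cells. Paired agents were dosed in half-log steps down from about clinical Cmax, or from 10 microM where Cmax was unknown.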

[1] = second compound 0.0316 µM, first compound 0.0316 µM
[2] = second compound 0.0316 µM, first compound 0.1 µM
[3] = second compound 0.0316 µM, first compound 0.316 µM
[4] = second compound 0.0316 µM, first compound 1 µM
[5] = second compound 0.0316 µM, first compound 3.16 µM
[6] = second compound 0.0316 µM, first compound 10 µM
[7] = second compound 0.1 µM, first compound 0.0316 µM
[8] = second compound 0.1 µM, first compound 0.1 µM
[9] = second compound 0.1 µM, first compound 0.316 µM
[10] = second compound 0.1 µM, first compound 1 µM
[11] = second compound 0.1 µM, first compound 3.16 µM
[12] = second compound 0.1 µM, first compound 10 µM
[13] = second compound 0.316 µM, first compound 0.0316 µM
[14] = second compound 0.316 µM, first compound 0.1 µM
[15] = second compound 0.316 µM, first compound 0.316 µM
[16] = second compound 0.316 µM, first compound 1 µM
[17] = second compound 0.316 µM, first compound 3.16 µM
[18] = second compound 0.316 µM, first compound 10 µM
[19] = second compound 1 µM, first compound 0.0316 µM
[20] = second compound 1 µM, first compound 0.1 µM
[21] = second compound 1 µM, first compound 0.316 µM
[22] = second compound 1 µM, first compound 1 µM
[23] = second compound 1 µM, first compound 3.16 µM
[24] = second compound 1 µM, first compound 10 µM
[25] = second compound 3.16 µM, first compound 0.0316 µM
[26] = second compound 3.16 µM, first compound 0.1 µM
[27] = second compound 3.16 µM, first compound 0.316 µM
[28] = second compound 3.16 µM, first compound 1 µM
[29] = second compound 3.16 µM, first compound 3.16 µM
[30] = second compound 3.16 µM, first compound 10 µM
[31] = second compound 10 µM, first compound 0.0316 µM
[32] = second compound 10 µM, first compound 0.1 µM
[33] = second compound 10 µM, first compound 0.316 µM
[34] = second compound 10 µM, first compound 1 µM
[35] = second compound 10 µM, first compound 3.16 µM
[36] = second compound 10 µM, first compound 10 µM
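Also: spheroids exposed to agents for 7 days.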
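For viability, T/C in this document: 100% = DMSO vehicle wells.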

CC(=O)O[C@H]1C(=O)[C@@]2(C)[C@H]([C@H](OC(=O)c3ccccc3)[C@]3(O)C[C@H](OC(=O)[C@H](O)[C@@H](NC(=O)c4ccccc4)c4ccccc4)C(C)=C1C3(C)C)[C@]1(OC(C)=O)CO[C@@H]1C[C@@H]2O + CNC(=O)c1ccc(Nc2nc(OC3CCCC3)c3c(-c4ccc5nc(C)oc5c4)c[nH]c3n2)c(OC)c1
IC50 (second compound 0.0316 µM): < 0.0316 µM | IC50 (second compound 0.1 µM): < 0.0316 µM | IC50 (second compound 0.316 µM): < 0.0316 µM | IC50 (second compound 1 µM): < 0.0316 µM | IC50 (second compound 3.16 µM): < 0.0316 µM | IC50 (second compound 10 µM): < 0.0316 µM | viability, T/C [1]: 35% | viability, T/C [2]: 27.8% | viability, T/C [3]: 23.3% | viability, T/C [4]: 27% | viability, T/C [5]: 30.8% | viability, T/C [6]: 36.2% | viability, T/C [7]: 39.9% | viability, T/C [8]: 37.7% | viability, T/C [9]: 35.2% | viability, T/C [10]: 38.9% | viability, T/C [11]: 41% | viability, T/C [12]: 44.2% | viability, T/C [13]: 34.8% | viability, T/C [14]: 40% | viability, T/C [15]: 32% | viability, T/C [16]: 38.3% | viability, T/C [17]: 58.5% | viability, T/C [18]: 46% | viability, T/C [19]: 45.6% | viability, T/C [20]: 53.2% | viability, T/C [21]: 56.6% | viability, T/C [22]: 60.6% | viability, T/C [23]: 59.5% | viability, T/C [24]: 58.1% | viability, T/C [25]: 34.3% | viability, T/C [26]: 51.5% | viability, T/C [27]: 63.4% | viability, T/C [28]: 63% | viability, T/C [29]: 72.1% | viability, T/C [30]: 63.9% | viability, T/C [31]: 39.5% | viability, T/C [32]: 43.2% | viability, T/C [33]: 70.7% | viability, T/C [34]: 75% | viability, T/C [35]: 62.7% | viability, T/C [36]: 62%

CC(CO)NC(=O)c1cc(-c2ccc(Cl)cc2)nn(-c2cnn(C)c2)c1=O (centres undefined) + CNC(=O)c1ccc(Nc2nc(OC3CCCC3)c3c(-c4ccc5nc(C)oc5c4)c[nH]c3n2)c(OC)c1
IC50 (second compound 0.0316 µM): > 10 µM | IC50 (second compound 0.1 µM): 0.487 µM | IC50 (second compound 0.316 µM): < 0.0316 µM | IC50 (second compound 1 µM): < 0.0316 µM | IC50 (second compound 3.16 µM): < 0.0316 µM | IC50 (second compound 10 µM): < 0.0316 µM | viability, T/C [1]: 85.1% | viability, T/C [2]: 89% | viability, T/C [3]: 89.2% | viability, T/C [4]: 92.8% | viability, T/C [5]: 91.1% | viability, T/C [6]: 97.5% | viability, T/C [7]: 58.9% | viability, T/C [8]: 57.9% | viability, T/C [9]: 48.7% | viability, T/C [10]: 45.9% | viability, T/C [11]: 50.6% | viability, T/C [12]: 43.4% | viability, T/C [13]: 36.4% | viability, T/C [14]: 45.8% | viability, T/C [15]: 40.2% | viability, T/C [16]: 38.6% | viability, T/C [17]: 48% | viability, T/C [18]: 40.2% | viability, T/C [19]: 43.5% | viability, T/C [20]: 46% | viability, T/C [21]: 46.3% | viability, T/C [22]: 41.8% | viability, T/C [23]: 44.2% | viability, T/C [24]: 35.3% | viability, T/C [25]: 45% | viability, T/C [26]: 45.4% | viability, T/C [27]: 36.2% | viability, T/C [28]: 38.4% | viability, T/C [29]: 31.7% | viability, T/C [30]: 30.3% | viability, T/C [31]: 43.4% | viability, T/C [32]: 43.4% | viability, T/C [33]: 34.3% | viability, T/C [34]: 30.3% | viability, T/C [35]: 34.3% | viability, T/C [36]: 39.5%
